Results on one molecule are retold here after PMC3564010, “Exposure to Acetylcholinesterase Inhibitors Alters the Physiology and Motor Function of Honeybees” (Frontiers in Physiology, 2013).

This assay has as its system T1, AChE (honeybee gut lysate).
T1 construct: gene AChE-1; total AChE activity
The assay can be described thus: Ellman assay, […] nm, Hill fit. Type of assay: biochemical, Apis mellifera mellifera. As to conditions: gut homogenate; […] min incubation; […] acetylthiocholine iodide, […] DTNB; PBS. (In general: In Ellman's method for cholinesterases, released thiocholine reacts with DTNB.)

Regarding `COc1cc2c(cc1OC)C(=O)C(CC1CCN(Cc3ccccc3)CC1)C2` (stereo not shown) [Donepezil], the midpoint of inhibition, the IC50, lay at 0.115 ± 0.00586 µM.
